Test results published in patent US6162832A, “2-Phenoxyaniline derivatives” (Taisho Pharmaceutical Co., Inc., priority 1997, dated 2000).
Where a name gives a salt, the structure may show the parent alone.

Biological target: T1, Na^+ /Ca^2+ Exchange System (Canis lupus familiaris, UniProt P23685)
T1 construct: Sarcolemmal vesicles prepared from the removed dog ventricular muscles; from tissue; host or cells: dog ventricular muscle, sarcolemmal vesicles
Experiment: Inhibitory Action on a Na^+ /Ca^2+ Exchange System using Cardiac Sarcolemmal Vesicles
Type: biochemical
Details: 10 s; 1 μM test drug; dog ventricular sarcolemmal vesicles; 45Ca uptake, 10 seconds; remaining activity vs vehicle-treated group; read-out: Na^+ /Ca^2+ exchange activity (% of control)
Description: Inhibitory Action on a Na^+ /Ca^2+ Exchange System using Cardiac Sarcolemmal Vesicles Sarcolemmal vesicles prepared from the removed dog ventricular muscles according to the method described in the literature (L. R. Jones, Methods, Enzymol., 1988, 157, pp. 85) were used. A Na^+ /Ca^2+ exchange activity using the sarcolemmal vesicles was measured according to the method described in the literature (K. D. Philipson, et al., J. Biol. Chem., 1980, 255, pp. 6880). First, the sarcolemmal vesicles were suspended in a sodium-containing solution [160 mM sodium chloride, 20 mM Tris-hydrochloric acid (pH 7.4)] to make up to a protein concentration of 1.5 mg/ml, and allowed to stand for an hour to load Na^+ in the sarcolemmal vesicles. To 2.5 μl of the sarcolemmal vesicles was added 125 μl of a [^45 Ca]-calcium chloride solution [20 μM [^45 Ca]-calcium chloride, 160 mM potassium chloride and 20 mM Mops-Tris (pH 7.4)], and after 10 seconds, 900 μl of an ice-cooled lanthanum chloride solution [10 mM lanthanum chloride, 160 mM potassium chloride and 20 mM Mops-Tris (pH 7.4)] was added. The sarcolemmal vesicles were recovered on a nitrocellulose filter by suction filtration and washed three times with 900 μl of a lanthanum chloride solution. The […] of Ca^2+ uptake in the sarcolemmal vesicles was determined by measuring a ^45 Ca radioactivity by a scintillator. In addition, a Na^+ /Ca^2+ exchange activity-independent Ca^2+ uptake in the sarcolemmal vesicles was determined by carrying out the same procedure using a potassium-containing solution [160 mM potassium chloride, 20 mM Tris-hydrochloric acid (pH 7.4)] instead of the sodium-containing solution. The test compound was used as a dimethyl sulfoxide solution thereof, and its inhibitory effect was evaluated in comparison with the vehicle-treatedgroup.

remaining activity at 1 µM	Structure (SMILES)
27%	Nc1ccccc1Oc1ccc(OCc2cc(F)ccc2F)cc1 [Compound 4, 2-[4-(2,5-Difluorobenzyloxy)phenoxy]aniline hydrochloride]
33%	CCOc1ccc(Oc2ccc(OCc3c(F)cccc3F)cc2)c(N)c1 [Compound 7, 2-[4-(2.6-Difluorobenzyloxy)phenoxy]-5-ethoxyaniline hydrochloride]
39%	CCOc1ccc(Oc2ccc(OCc3cc(F)ccc3F)cc2)c(N)c1 [Compound 6, 2-[4-(2.5-Difluorobenzyloxy)phenoxy]-5-ethoxyaniline hydrochloride]
38%	Nc1ccccc1Oc1ccc(OCc2cccc(F)c2F)cc1 [Compound 3, 2-[4-(2,3-Difluorobenzyloxy)phenoxy]aniline hydrochloride]
47%	Nc1ccccc1Oc1ccc(OCc2ccc(F)cc2F)cc1 [Compound 8, 2-[4-(2,4-Difluorobenzyloxy)phenoxy]aniline hydrochloride]
43%	Nc1ccccc1Oc1ccc(OCc2c(F)cccc2F)cc1 [Compound 5, 2-[4-(2,6-Difluorobenzyloxy)phenoxy]aniline hydrochloride]
45%	CCOc1ccc(Oc2ccc(OCc3cccc(F)c3F)cc2)c(N)c1 [Compound 10, 2-[4-(2,3-Difluorobenzyloxy)phenoxy]-5-ethoxyaniline hydrochloride]
